The values that follow come from patent US4317826A, “N,N'-Bis[substituted-1,2,3,4 tetrahydroisoquinolyl]disulfonylimides and antiallergic compositions and method of use” (SmithKline Corporation, priority 1980, dated 1982).

For one assay, the system named is slow reacting substance of anaphylaxis (SRS-A). The experiment in a line: Inhibition of SRS-A induced contraction of guinea pig ileum. The conditions noted are these: Cavia porcellus, 0.25 h; compound concentration 5 × 10^-5 M; partially purified SRS-A from guinea pig lung at 40 μg/ml; 15 minute incubation; read-out: Percent Antagonism. The format is cell-based. The protocol:
The SRS-A antagonist activity of the compounds of this invention is measured by the ability of the active medicament to inhibit SRS-A induced contraction of guinea pig ileum. In this test system, sections of ileum are resected from guinea pigs and placed in 5 ml. tissue baths containing a modified Tyrode's solution. One end of the tissue is fixed to a glass tissue holder, the other is connected to a force-displacement transducer and the tissue is placed under a tension of 500 mg. Isometric tissue contractions are recorded on a six channel polygraph. Baths are constantly aerated with 95% O2 -5% CO2. After a 20 minute stabilization period a concentration of the appropriate agonist which provides a contraction height of 60-80% of the maximum obtainable to that agonist (as determined from full sequential concentration--response curves in separate experiments) is added to the tissue bath and the response recorded. The procedure is repeated until reproducible responses are obtained. For most agonists, two applications in rapid succession, followed 15 minutes later by a third, is sufficient to establish reproducibility. Experimental tissues are incubated with the selected concentration of the test compounds for 15 minutes. Experimental and control tissues are subjected to 5 bath changes during the incubation interval. Changes in bath fluid during the incubation period are helpful in insuring the reproducibility of tissue responses to the agonist. The same concentration of the agonist is reapplied in the presence of the test compound and the response registered and compared with controls. Percent inhibition produced by the test compound is calculated by subtracting the mean percentage change in control tissue from the mean percentage change in tissues exposed to the test compound. Additional compounds are then evaluated as long as the tissue remains reproducibly responsive to the agonist. Six tissues obtained from 6 animals are used simultaneously--3 controls and 3 experimental.
The compounds of this invention tested at concentrations of from 5×10^-5 to 5×10^-6 produce marked antagonism of partially purified slow reacting substance of anaphylaxis obtained from guinea pig lung. The agonist is employed at a concentration of 40 μg/ml. Representative of this effect, tabulated below are a number of the claimed compounds and percent antagonism of SRS-A at various compound concentrations.
Regarding `O=S(=O)(NS(=O)(=O)N1CCc2cc(Cl)ccc2C1)N1CCc2cc(Cl)ccc2C1` [H 6-Cl H H], the inhibition at 50 µM turned out to be 84.2%.

Staying with this assay, now noted: Cavia porcellus, 0.25 h; compound concentration 5 × 10^-6 M; partially purified SRS-A from guinea pig lung at 40 μg/ml; 15 minute incubation; read-out: Percent Antagonism.
For `O=S(=O)(NS(=O)(=O)N1CCc2ccc(C(F)(F)F)c(C(F)(F)F)c2C1)N1CCc2ccc(C(F)(F)F)c(C(F)(F)F)c2C1` [7-CF3 8-CF3 H H], the inhibition at 5 µM amounted to 26.8%. `Cc1ccc2c(c1Cl)CN(S(=O)(=O)NS(=O)(=O)N1CCc3ccc(C)c(Cl)c3C1)CC2` [7-CH3 8-Cl H H]: the inhibition at 5 µM stood at 49.9%. Still for that read-out and setting: the value for `O=S(=O)(NS(=O)(=O)N1CCc2cc(Cl)c(Cl)cc2C1)N1CCc2cc(Cl)c(Cl)cc2C1` [7-Cl 6-Cl H H] was 56.3%. Consider `CC(C)C1c2c(ccc(Cl)c2Cl)CCN1S(=O)(=O)NS(=O)(=O)N1CCc2ccc(Cl)c(Cl)c2C1C(C)C` (centres unmarked) [7-Cl 8-Cl CH(CH3)2 H], for which the inhibition at 5 µM came to 63%. Regarding `CC1Cc2ccc(Cl)c(Cl)c2CN1S(=O)(=O)NS(=O)(=O)N1Cc2c(ccc(Cl)c2Cl)CC1C` (centres unmarked) [7-Cl 8-Cl H CH3], the inhibition at 5 µM was 52.5%. `O=S(=O)(NS(=O)(=O)N1CCc2ccc(Cl)c(Cl)c2C1)N1CCc2ccc(Cl)c(Cl)c2C1` [7-Cl 8-Cl H H, N,N'-bis(7,8-dichloro-1,2,3,4,-tetrahydroisoquinolyl)disulfonylimide]: the inhibition at 5 µM stood at 42%. In the case of `O=S(=O)(NS(=O)(=O)N1CCc2ccc(Cl)c(Cl)c2C1C1CC1)N1CCc2ccc(Cl)c(Cl)c2C1C1CC1` (centres unmarked) [7-Cl 8-Cl [drawing 3] H], the inhibition at 5 µM is 60%. The same measure, in the same setting: the value for `O=S(=O)(NS(=O)(=O)N1CCc2ccc(Cl)c(SC(F)(F)C(F)F)c2C1)N1CCc2ccc(Cl)c(SC(F)(F)C(F)F)c2C1` [7-Cl 8-SCF2 CF2 H H H] was 36.2%.

Turning to `O=S(=O)(NS(=O)(=O)N1CCc2c(Br)ccc(Br)c2C1)N1CCc2c(Br)ccc(Br)c2C1` [8-Br 5-Br H H], the inhibition at 5 µM stood at 22.9%.

`O=S(=O)(NS(=O)(=O)N1CCc2c(Br)cccc2C1)N1CCc2c(Br)cccc2C1` [H 5-Br H H]: the inhibition at 5 µM was determined as 45.2%.
